Read-outs that look alike come from different tables or passages of the source.
Tests used:
[1] = type: physicochemical; settings: DI water, 25° C., 0.5 mM
[2] = type: physicochemical; settings: SGF with pepsin, pH 1.5, 37° C.; for Condition 1 Conversion (%): 0.5 mM; for Condition 1 Conversion (%), first value of pair x/y: first of two values; for Condition 1 Conversion (%), second value of pair x/y: second of two values

SMILES	Condition 2 Conversion (%) ([1]; time 1 min)	Condition 2 Conversion (%) ([1]; time 5 min)	Condition 2 Conversion (%) ([1]; time 30 min)	Condition 2 Conversion (%) ([1]; time 1 h)	Condition 2 Conversion (%) ([1]; time 4 h)	Condition 2 Conversion (%) ([1]; time 24 h)	Condition 1 Conversion (%) ([2]; time 1 min)	Condition 1 Conversion (%) ([2]; time 5 min)	Condition 1 Conversion (%) ([2]; time 30 min)	Condition 1 Conversion (%) ([2]; time 1 h)	Condition 1 Conversion (%) ([2]; time 4 h)	Condition 1 Conversion (%) ([2]; time 24 h)	Condition 1 Conversion (%), first value of pair x/y ([2]; time 30 min) [%]	Condition 1 Conversion (%), second value of pair x/y ([2]; time 30 min) [%]	Condition 1 Conversion (%), first value of pair x/y ([2]; time 1 h) [%]	Condition 1 Conversion (%), second value of pair x/y ([2]; time 1 h) [%]	Condition 1 Conversion (%), first value of pair x/y ([2]; time 4 h) [%]	Condition 1 Conversion (%), second value of pair x/y ([2]; time 4 h) [%]	Condition 1 Conversion (%), first value of pair x/y ([2]; time 24 h) [%]	Condition 1 Conversion (%), second value of pair x/y ([2]; time 24 h) [%]
COc1ccc([C@@]23CCC(=NOCCOc4ccccc4)C[C@@H]2N(C)CC3)cc1OC [Compound 234, (3aS,7aS)-3a-(3,4-dimethoxyphenyl)-1-methyl-N-(2-phenoxyethoxy)-2,3,4,5,7,7a-hexahydroindol-6-imine]	0	0	0	0	0	0	0	0	0	0	2.16	2.63	–	–	–	–	–	–	–	–
COc1ccc([C@@]23CC/C(=N\NC(=O)Nc4ccc(N5CCN(C)CC5)cc4)C[C@@H]2N(C)CC3)cc1OC [Compound 257, 1-[[(3aS,7aS)-3a-(3,4-dimethoxyphenyl)-1-methyl-2,3,4,5,7,7a-hexahydroindol-6-ylidene]amino]-3-[4-(4-methylpiperazin-1-yl)phenyl]urea]	0	0	5	8	30	95	4.6	54.1	100	100	100	100	–	–	–	–	–	–	–	–
COc1ccc([C@@]23CCC(=NNC(=O)c4ccc(F)cc4)C[C@@H]2N(C)CC3)cc1OC [Compound 220, N-[[(3aS)-3a-(3,4-dimethoxyphenyl)-1-methyl-2,3,4,5,7,7a-hexahydroindol-6-ylidene]amino]-4-fluoro-benzamide]	20.02	21.53	22.27	55.36	88.25	89.93	86.72	100	100	100	100	100	–	–	–	–	–	–	–	–
COc1ccc([C@@]23CCC(=NNC(=O)COc4ccccc4)C[C@@H]2N(C)CC3)cc1OC [Compound 223, N-[[(3aS,7aS)-3a-(3,4-dimethoxyphenyl)-1-methyl-2,3,4,5,7,7a-hexahydroindol-6-ylidene]amino]-2-phenoxy-acetamide]	9.8	10.4	13.5	18.5	50.1	81.3	100	100	100	100	100	100	–	–	–	–	–	–	–	–
COc1ccc([C@@]23CCC(=NNC(=O)C(=O)O)C[C@@H]2N(C)CC3)cc1OC [Compound 241, 2-[2-[(3aS,7aS)-3a-(3,4-dimethoxyphenyl)-1-methyl-2,3,4,5,7,7a-hexahydroindol-6-ylidene]hydrazino]-2-oxo-acetic acid]	0	28	30	52	86	100	100	100	100	100	100	100	–	–	–	–	–	–	–	–
COc1ccc([C@@]23CCC(=NOCC(=O)O)C[C@@H]2N(C)CC3)cc1OC [Compound 201, 2-[[(3aS,7aS)-3a-(3,4-dimethoxyphenyl)-1-methyl-2,3,4,5,7,7a-hexahydroindol-6-ylidene]amino]oxyacetic acid]	0	0	0	0	0	0	0	0	0	0	7.1	14.7	–	–	–	–	–	–	–	–
COc1ccc(C23CCC(=NNC(=O)Nc4ccccc4)C[C@@H]2N(C)CC3)cc1OC (stereo in doubt) [Compound 198, 1-[[(3aR)-3a-(3,4-dimethoxyphenyl)-1-methyl-2,3,4,5,7,7a-hexahydroindol-6-ylidene]amino]-3-phenyl-urea]	0.2	0.21	0.22	0.55	0.89	0.8	0.86	1	1	1	1	1	–	–	–	–	–	–	–	–
CCON=C1CC[C@@]2(c3ccc(OC)c(OC)c3)CCN(C)[C@H]2C1 [Compound 200, (3aS,7aS)-3a-(3,4-dimethoxyphenyl)-N-ethoxy-1-methyl-2,3,4,5,7,7a-hexahydroindol-6-imine]	0	0	0	0	0	0	0	0	0	2.1	27.7	34.1	–	–	–	–	–	–	–	–
COc1ccc([C@@]23CCC(=NOCc4cccnc4)C[C@@H]2N(C)CC3)cc1OC [Compound 209, (3aS)-3a-(3,4-dimethoxyphenyl)-1-methyl-N-(3-pyridylmethoxy)-2,3,4,5,7,7a-hexahydroindol-6-imine]	0	0	0	0	0	0	0	0	0	0	0	0	–	–	–	–	–	–	–	–
COc1ccc([C@@]23CCC(=NOCC4CC4)C[C@@H]2N(C)CC3)cc1OC [Compound 205, (3aS,7aS)-N-(cyclopropylmethoxy)-3a-(3,4-dimethoxyphenyl)-1-methyl-2,3,4,5,7,7a-hexahydroindol-6-imine]	0	0	0	0	0	0	0	0	4.5	9.4	16.7	19.3	–	–	–	–	–	–	–	–
COc1ccc([C@@]23CCC(=NNC(=O)C45CC6CC(CC(C6)C4)C5)C[C@@H]2N(C)CC3)cc1OC [Compound 271, N-[[(3aS,7aS)-3a-(3,4-dimethoxyphenyl)-1-methyl-2,3,4,5,7,7a-hexahydroindol-6-ylidene]amino]adamantane-1-carboxamide]	78.3	70.3	82	85.7	94.5	100	100	100	100	100	100	100	–	–	–	–	–	–	–	–
COc1ccc([C@@]23CCC(=NOC4CCCCO4)C[C@@H]2N(C)CC3)cc1OC (stereo partly drawn) [Compound 206, (3aS,7aS)-3a-(3,4-dimethoxyphenyl)-1-methyl-N-tetrahydropyran-2-yloxy-2,3,4,5,7,7a-hexahydroindol-6-imine]	0	0	0	0	0	0	0	0	–	–	–	–	1.41	0	7.83	2.57	0	77.75	0	100
